pIC50: −log10 of the molar value.
Tests used:
[1] = target: T1, CDK2 (Homo sapiens, UniProt P24941); experiment: CDK protein degradation activity (Western blotting), CDK2; assay type: cell-based; conditions: MDA-MB-231 cells, 16 hours, Western blot
T1 construct: endogenous in cells; host or cells: MDA-MB-231
Procedure, shortened: (§1)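 MDA-MB-231 cells were treated with compound at final concentrations of 100 nM, 1 μM and 10 μM, or DMSO vehicle, for 16 h. Lysates were resolved by SDS-PAGE and immunoblotted for CDK2, CDK9 and tubulin, with band intensities quantified densitometrically.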

[2] = target: T2, CDK2/cyclin A (Homo sapiens, UniProt P24941); experiment: CDK protein inhibition, KINOMEscan (Eurofins), CDK2/cyclin A; assay type: binding; conditions: for pIC50: Table 17, unit inferred
T2 construct: purchased Eurofins Scientific

[3] = target: T3, CDK9 (Homo sapiens, UniProt P50750); experiment: CDK protein degradation activity (Western blotting), CDK9; assay type: cell-based; conditions: MDA-MB-231 cells, 16 hours, Western blot
T3 construct: endogenous in cells; host or cells: MDA-MB-231
T3 sequence (P50750 whole entry): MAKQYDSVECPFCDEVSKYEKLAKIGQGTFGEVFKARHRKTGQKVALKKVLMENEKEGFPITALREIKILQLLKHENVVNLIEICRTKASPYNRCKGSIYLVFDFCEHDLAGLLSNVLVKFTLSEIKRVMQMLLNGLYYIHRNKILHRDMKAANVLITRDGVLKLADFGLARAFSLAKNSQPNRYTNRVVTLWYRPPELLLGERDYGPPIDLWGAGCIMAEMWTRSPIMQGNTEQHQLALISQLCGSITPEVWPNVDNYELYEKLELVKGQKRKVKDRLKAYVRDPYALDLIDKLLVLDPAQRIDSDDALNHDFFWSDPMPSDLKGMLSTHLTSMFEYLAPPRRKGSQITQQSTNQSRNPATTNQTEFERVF
Procedure, shortened: as §1

SMILES	Enzyme degradation CDK2 (% remaining) @ 0.1 μM [1]	Enzyme degradation CDK2 (% remaining) @ 1 μM [1]	Enzyme degradation CDK2 (% remaining) @ 10 μM [1]	CDK2/cyclin A inhibition (%) (at concentration of 1 μM) [2]	Enzyme degradation CDK9 (% remaining) @ 0.1 μM [3]	Enzyme degradation CDK9 (% remaining) @ 1 μM [3]	Enzyme degradation CDK9 (% remaining) @ 10 μM [3]	pIC50 [2]
Cc1cccc(C(=O)N[C@H]2C[C@H](n3cnc4c(NCC5CCN(C(=O)CCCCCNC(=O)CNc6ccc7c(c6)C(=O)N([C@@H]6CCC(=O)NC6=O)C7=O)CC5)ncnc43)C2)n1 (stereo in doubt) [Compound 61, N-((1r,3r)-3-(6-(((1-(6-(2-((2-(2,6-dioxopiperidin-3-yl)-1,3-dioxoisoindolin-5-yl)amino)acetamido)hexanoyl)piperidin-4-yl)methyl)amino)-9H-purin-9-yl)cyclobutyl)-6-methylpicolinamide]	100%	100%	40%	84%	80%	50%	10%	–
Cc1cccc(C(=O)NC2CC(n3cnc4c(NC5CCN(C(=O)COCCOCCNC(=O)CNc6cccc7c6C(=O)N([C@H]6CCC(=O)NC6=O)C7=O)CC5)ncnc43)C2)n1 (stereo partly shown) [Compound 10, N-((1s,3s)-3-(6-((1-(2-(2-(2-(2-((2-(2,6-dioxopiperidin-3-yl)-1,3-dioxoisoindolin-4-yl)amino)acetamido)ethoxy)ethoxy)acetyl)piperidin-4-yl)amino)-9H-purin-9-yl)cyclobutyl)-6-methylpicolinamide]	–	–	–	90%	–	–	–	–
Cc1cccc(C(=O)NC2CC(n3cnc4c(NC5CCN(C(=O)COCCOCCNc6ccc7c(c6)C(=O)N([C@H]6CCC(=O)NC6=O)C7=O)CC5)ncnc43)C2)n1 (stereo partly shown) [Compound 11, N-((1s,3s)-3-(6-((1-(2-(2-(2-((2-(2,6-dioxopiperidin-3-yl)-1,3-dioxoisoindolin-5-yl)amino)ethoxy)ethoxy)acetyl)piperidin-4-yl)amino)-9H-purin-9-yl)cyclobutyl)-6-methylpicolinamide]	–	–	–	78%	–	–	–	–
Cc1cccc(C(=O)NC2CC(n3cnc4c(NC5CCN(C(=O)COCCOCCNc6cccc7c6C(=O)N([C@H]6CCC(=O)NC6=O)C7=O)CC5)ncnc43)C2)n1 (stereo partly shown) [Compound 12, N-((1s,3s)-3-(6-((1-(2-(2-(2-((2-(2,6-dioxopiperidin-3-yl)-1,3-dioxoisoindolin-4-yl)amino)ethoxy)ethoxy)acetyl)piperidin-4-yl)amino)-9H-purin-9-yl)cyclobutyl)-6-methylpicolinamide]	–	–	–	86%	–	–	–	–
Cc1cccc(C(=O)N[C@H]2C[C@H](n3cnc4c(NCC5CCN(C(=O)CCCCCNc6ccc7c(c6)C(=O)N([C@@H]6CCC(=O)NC6=O)C7=O)CC5)ncnc43)C2)n1 [Compound 65, N-((1r,3r)-3-(6-(((1-(6-((2-(2,6-dioxopiperidin-3-yl)-1,3-dioxoisoindolin-5-yl)amino)hexanoyl)piperidin-4-yl)methyl)amino)-9H-purin-9-yl)cyclobutyl)-6-methylpicolinamide]	100%	50%	20%	87%	30%	10%	0%	–
Cc1cccc(C(=O)N[C@H]2C[C@H](n3cnc4c(NCC5CCN(CC6CCN(C(=O)CNc7ccc8c(c7)C(=O)N(C7CCC(=O)NC7=O)C8=O)CC6)CC5)ncnc43)C2)n1 (stereo partly shown) [Compound 74, N-((1r,3r)-3-(6-(((1-((1-((2-(2,6-dioxopiperidin-3-yl)-1,3-dioxoisoindolin-5-yl)glycyl)piperidin-4-yl)methyl)piperidin-4-yl)methyl)amino)-9H-purin-9-yl)cyclobutyl)-6-methylpicolinamide]	30%	40%	50%	–	0/0/0%	0/0/0%	0/0/0%	< 5.00
Cc1cccc(C(=O)N[C@H]2C[C@@H](n3cnc4c(Nc5ccc(N6CCN(CC7CCN(C(=O)COc8cccc9c8C(=O)N(C8CCC(=O)NC8=O)C9=O)CC7)CC6)cc5)ncnc43)C2)n1 (stereo partly shown) [Compound 91, N-((1s,3s)-3-(6-((4-(4-((1-(2-((2-(2,6-dioxopiperidin-3-yl)-1,3-dioxoisoindolin-4-yl)oxy)acetyl)piperidin-4-yl)methyl)piperazin-1-yl)phenyl)amino)-9H-purin-9-yl)cyclobutyl)-6-methylpicolinamide]	0/0/0%	0/0/0%	0/0/0%	–	0/0/0%	0/0/0%	0/0/0%	6.21
Cc1cccc(C(=O)N[C@H]2C[C@@H](n3cnc4c(NCCC5CCN(CC6CCN(C(=O)CNc7ccc8c(c7)C(=O)N(C7CCC(=O)NC7=O)C8=O)CC6)CC5)ncnc43)C2)n1 (stereo partly shown) [Compound 125, N-((1s,3s)-3-(6-((2-(1-((1-((2-(2,6-dioxopiperidin-3-yl)-1,3-dioxoisoindolin-5-yl)glycyl)piperidin-4-yl)methyl)piperidin-4-yl)ethyl)amino)-9H-purin-9-yl)cyclobutyl)-6-methylpicolinamide]	30%	10%	20%	–	0/0/0%	0/0/0%	0/0/0%	5.89
O=C1CCC(N2C(=O)c3cccc(NCC(=O)N4CCC(CN5CCN(c6ccc(Nc7ncnc8c7ncn8[C@H]7C[C@@H](NC(=O)Cc8ccccc8)C7)cc6)CC5)CC4)c3C2=O)C(=O)N1 (stereo partly shown) [Compound 176, N-((1s,3s)-3-(6-((4-(4-((1-((2-(2,6-dioxopiperidin-3-yl)-1,3-dioxoisoindolin-4-yl)glycyl)piperidin-4-yl)methyl)piperazin-1-yl)phenyl)amino)-9H-purin-9-yl)cyclobutyl)-2-phenylacetamide]	0/0/0%	0/0/0%	0/0/0%	–	0/0/0%	0/0/0%	0/0/0%	6.36

Second part, the compound after the results:

Enzyme degradation CDK2 (% remaining) @ 0.1 μM [1]	Enzyme degradation CDK2 (% remaining) @ 1 μM [1]	Enzyme degradation CDK2 (% remaining) @ 10 μM [1]	CDK2/cyclin A inhibition (%) (at concentration of 1 μM) [2]	Enzyme degradation CDK9 (% remaining) @ 0.1 μM [3]	Enzyme degradation CDK9 (% remaining) @ 1 μM [3]	Enzyme degradation CDK9 (% remaining) @ 10 μM [3]	pIC50 [2]	SMILES
–	–	–	89%	–	–	–	–	Cc1cccc(C(=O)NC2CC(n3cnc4c(NCC5CCN(C(=O)CCCCCNC(=O)CNc6cccc7c6C(=O)N([C@@H]6CCC(=O)NC6=O)C7=O)CC5)ncnc43)C2)n1 (stereo partly shown) [Compound 62, N-((1r,3r)-3-(6-(((1-(6-(2-((2-(2,6-dioxopiperidin-3-yl)-1,3-dioxoisoindolin-4-yl)amino)acetamido)hexanoyl)piperidin-4-yl)methyl)amino)-9H-purin-9-yl)cyclobutyl)-6-methylpicolinamide]
–	–	–	83%	–	–	–	–	Cc1cccc(C(=O)NC2CC(n3cnc4c(NCC5CCN(C(=O)CCCCCNC(=O)COc6ccc7c(c6)C(=O)N([C@@H]6CCC(=O)NC6=O)C7=O)CC5)ncnc43)C2)n1 (stereo partly shown) [Compound 63, N-((1r,3r)-3-(6-(((1-(6-(2-((2-(2,6-dioxopiperidin-3-yl)-1,3-dioxoisoindolin-5-yl)oxy)acetamido)hexanoyl)piperidin-4-yl)methyl)amino)-9H-purin-9-yl)cyclobutyl)-6-methylpicolinamide]
–	–	–	85%	–	–	–	–	Cc1cccc(C(=O)NC2CC(n3cnc4c(NCC5CCN(C(=O)CCCCCNC(=O)COc6cccc7c6C(=O)N([C@@H]6CCC(=O)NC6=O)C7=O)CC5)ncnc43)C2)n1 (stereo partly shown) [Compound 64, N-((1r,3r)-3-(6-(((1-(6-(2-((2-(2,6-dioxopiperidin-3-yl)-1,3-dioxoisoindolin-4-yl)oxy)acetamido)hexanoyl)piperidin-4-yl)methyl)amino)-9H-purin-9-yl)cyclobutyl)-6-methylpicolinamide]
–	–	–	78%	–	–	–	–	Cc1cccc(C(=O)NC2CC(n3cnc4c(NCC5CCN(C(=O)CCCCCNc6cccc7c6C(=O)N([C@@H]6CCC(=O)NC6=O)C7=O)CC5)ncnc43)C2)n1 (stereo partly shown) [Compound 66, N-((1r,3r)-3-(6-(((1-(6-((2-(2,6-dioxopiperidin-3-yl)-1,3-dioxoisoindolin-4-yl)amino)hexanoyl)piperidin-4-yl)methyl)amino)-9H-purin-9-yl)cyclobutyl)-6-methylpicolinamide]
